Consider 25 molecules from patent publication US5691148A, “Petroleum immunoassay method, its components and a kit for use in performing the same” (ENSYS, Inc., priority 1994, dated 1997).

Read-outs that look alike come from different tables or passages of the source. A value given as a limit tells only on which side of the number the result lay.

Assay [1] relates to monoclonal F12-3C8 antibody (anti-petroleum). Nature of the assay: Cross-reactivity of immunoassay relative to m-xylene. The assay is classed as binding, mouse (Balb/c). Particulars: for ED50: calculated from a dose response curve. The method, then: (§1) Female Balb/c mice received a primary subcutaneous immunization with 50 ug of xylene derivatized to bovine serum albumin in adjuvant (MPL+TDM Emulsion, RIBI Immunochem Research, Inc., Hamilton, Mont.). Subcutaneous secondary injections (25 ug) were given at day 21, 35, and then monthly. The production of monoclonal antibodies was performed according to conventional procedures (see Milstein, Cancer, 49:1953-1957 (1982)). Hybridoma cultures producing monoclonal antibodies recognizing free hapten by EIA were cloned by limiting dilution.
(§2) Antibody coated tubes were prepared by passively coating polystyrene (12×75 mm, NUNC) tubes with the monoclonal F12-3C8 antibody diluted in PBS and incubating overnight.
(§3) 10 g of a soil sample were placed in an extraction vial containing 20 mL of methanol and 5 steel pellets (6 mm) and the vial and its contents shaken for 1 minute to disperse the soil particles and extract the petroleum hydrocarbons. The sample was then filtered to clarify the sample using a filter of glass fiber and 0.45μTeflon. 45 uL of the clarified filtrate sample was mixed with 955 μl of 10 mM PBS (pH=7.4) and the resulting mixture added to lyophilized enzyme conjugate reagent (0.3 μg) and mixed. At the same time, 2×45 uL of the xylene standard are similarly treated. The sample and the two standards were then poured into three identical antibody coated tubes, respectively, and the resulting solution mixed. The resulting solution was incubated for 10 minutes at ambient temperature and then washed 4× with a wash buffer (detergent-saline solution). 250 uL of tetramethylbenzidene solution (KP Laboratories, Cat. No. 50-76-02) was added along with 250 uL of hydrogen peroxide solution (KPL, Cat. No. 50-65-02) and the resultant solution mixed. After incubating for 2.5 minutes the color development reaction was stopped with 250 uL of stop solution (1M sulfuric acid).
The ED50 value was calculated from a dose response curve.
Percent CrossReactivity = ((mXylene ED50 /Compound ED50) .times

Assay [2] has the same test system. Briefly: Cross-reactivity of immunoassay: concentration needed to provide a positive result. The class given is binding, mouse (Balb/c). Particulars: test compounds dissolved in methanol. How it is done:
as §1, with “dilution. Clone F12-3C8 was selected based upon specificity, and interference criteria.” for “dilution.”
as §2, §3
Cross-reactivity of the immunoassay of the present
invention. The test compounds were dissolved in
methanol and assayed. The values listed are the
concentration of compound needed to provide a […]

Setting [3] is: (m-Xylene ED50 / Compound ED50) x 100, m-xylene = 100%.

For the molecule `CC(C)CC(C)(C)C` [2,2,4-Trimethylpentane], the “% Cross-Reactivity” value in assay [1] (setting [3]) was less than 1%. Also, the ED50 result in assay [1] is recorded as “Negative”.
`CCCCC(C)C` [2-Methylhexane]: the “% Cross-Reactivity” value in assay [1] (setting [3]) was 43%. Moreover, the ED50 in assay [1] (10 min) is 1,113 ppb.
The corresponding values for `CCCC(C)C` [2-Methylpentane] are 57% and 851 ppb.
With `c1cc2c3c(cccc3c1)CC2` [Acenaphthene], in assay [1] (setting [3]), the “% Cross-Reactivity” value is 5,378%. In addition, the ED50 in assay [1] (10 min) is given as 9 ppb. The Conc. where positive in assay [2] is 2.5 ppm.
Consider `c1ccccc1` [Benzene], for which, in assay [1], the “% Cross-Reactivity” value is given as less than 1%. Moreover, the Conc. where positive in assay [2] was > 10,000 ppm.
On to `C1CCCCC1` [Cyclohexane], for which the “% Cross-Reactivity” value in assay [1] (setting [3]) amounted to 7%. The ED50 in assay [1] (10 min) is 6,636 ppb.
Turning to `CCc1ccccc1` [Ethylbenzene], the “% Cross-Reactivity” value in assay [1] was 275%. Also, the ED50 in assay [1] (10 min) is 176 ppb.
In turn, `CCCCCCC` [Heptane] showed a Conc. where positive in assay [2] of 300 ppm.
In assay [2], `CCCCCC` [Hexane] gave a Conc. where positive of 300 ppm.
Same read-out and setting: for `CC(C)CC(C)(C)C` [Isooctane] the value was 100 ppm.
For the molecule `c1ccc2ccccc2c1` [Naphthalene], the “% Cross-Reactivity” value in assay [1] (setting [3]) is given as 4,390%. For the same molecule, in assay [1] (10 min), the ED50 was 11 ppb. In assay [2], this molecule yielded a Conc. where positive of 2.5 ppm.
The matching figures for `c1ccc2c(c1)ccc1ccccc12` [Phenanthrene]: 848%, 57 ppb and 10 ppm.
Turning to `Cc1ccccc1` [Toluene], the “% Cross-Reactivity” value in assay [1] (setting [3]) stood at 22%. For the same molecule, the ED50 in assay [1] (10 min) was 2,210 ppb. The Conc. where positive in assay [2] came out at 300 ppm.
With `CCCCCCCCCCC` [Undecane], the Conc. where positive in assay [2] is > 10,000 ppm.
Take `Cc1cccc(C)c1` [m-Xylene, reference compound]: the “% Cross-Reactivity” value in assay [1] (setting [3]) is 100%. Also, the ED50 in assay [1] (10 min) is 483 ppb.
The corresponding values for `CCCCCCC` [n-Heptane] are 30% and 1,669 ppb.
Regarding `CCCCCCCCC` [n-Nonane], the “% Cross-Reactivity” value in assay [1] (setting [3]) is reported as less than 1%. The ED50 entry in assay [1] is given as “Negative”.
Consider `CCCCCCCC` [n-Octane], for which the “% Cross-Reactivity” value in assay [1] (setting [3]) is reported as 11%. Moreover, the ED50 in assay [1] (10 min) is reported as 4,589 ppb.
Take `CCCCCCCCCCCCCC` [n-Tetradecane]: in assay [1] (setting [3]), the “% Cross-Reactivity” value was less than 1%. The ED50 entry in assay [1] is reported as “Negative”.
As for `CCCCCCCCCCCCC` [n-Tridecane], the “% Cross-Reactivity” value in assay [1] (setting [3]) is recorded as less than 1%. Also, the ED50 entry in assay [1] is given as “Negative”.
As to `CCCCCCCCCCC` [n-Undecane], the “% Cross-Reactivity” value in assay [1] (setting [3]) is on record as less than 1%. Besides, in assay [1], the ED50 entry was “Negative”.
Regarding `Cc1ccccc1C` [o-Xylene], the “% Cross-Reactivity” value in assay [1] (setting [3]) came out at 271%. In assay [1] (10 min), the ED50 is 178 ppb.
The corresponding values for `Cc1ccc(C)cc1` [p-Xylene] are 38% and 1,255 ppb.
For the molecule Methylnaphthalene, in assay [1] (setting [3]), the “% Cross-Reactivity” value is 780%. For the same molecule, the ED50 in assay [1] (10 min) is recorded as 62 ppb. The Conc. where positive in assay [2] is listed as 10 ppm.
Xylene gave a Conc. where positive in assay [2] of 100 ppm.
